From patent US9051339B2, “Sulfur-containing bicyclic compound” (Astellas Pharma Inc., priority 2013, dated 2015)

Legend:
[1] = target: T1, heterodimers of GABAB1b and GABAB2 (Homo sapiens, UniProt O75899+Q9UBS5); assay: FLIPR intracellular calcium mobilization in HEK293 cells stably expressing GABAB receptor; assay type: cell-based; settings: 100 μM GABA = 100%; for EC50: concentration raising reaction rate from 5% with 1 μM GABA to 50%, read-out: Potency (PAM Potency of GABAB); for Emax: maximum reaction rate in presence of 1 μM GABA, test drug up to 30 μM, read-out: Efficacy (PAM Efficacy of GABAB)
T1 construct: host or cells: HEK293
Text: A natural GABAB receptor has a heterodimeric structure consisting of two kinds of subunits of GABAB1 and GABAB2 (Nature, 1997, vol. 386, p. 239-246) In the subunit of GABAB1, two major splice variants referred to as GABAB1a and 1b exist. However, the two variants have no difference in the pharmacological effects in the receptor-downstreaming signals (Nature, 1998, vol. 396, p. 683-687).
In HEK293 cells expressing the heterodimers of GABAB1b and GABAB2, the PAM action in the presence of GABA was measured over time with a change in the intracellular Ca^2+ concentration using RFU (relative fluorescence units) as an index, and evaluated.
All vectors, wherein each vector was formed by human GABAB1b (NM_021903. 2), GABAB2 (NM_005458. 7), or Gαqo chimera, were incorporated by lipofection to establish stably expressing human embryonic kidney-derived cell lines, HEK293 cells (ATCC).
The Gαqo chimera was fabricated by the following method. The genes coding human Gαq (NM_002072.3) were cloned, and C-terminal 15 base pairs (1107-1121 bp) of ORF (41-1121 bp) of Gaq was substituted with C-terminal 15 base pairs (1948-1962 bp) of ORF (898-1962 bp) of human Gao (NM_138736. 2) into a Gαqo chimera.
A change in the intracellular concentration of calcium mobilized due to activation of a GABAB receptor was measured with a Fluorometric Imaging Plate Reader (FLIPR, Molecular Devices). The stably expressing cells established as described above were proliferated in a D-MEM medium containing a screening agent (0.5 mg/mL G418 Disulfate and 0.2 mg/mL Hydromycin B solution), 1% penicillin/streptomycin, and 10% FCS. About 1×10^4 cells/well were diluted and seeded in a black-wall, 384-well poly-D-lysin-coated plate (Becton Dickinson) in a D-MEM medium containing 10% FCS, but not a selective agent and 1% penicillin/streptomycin. After 24 hours, the medium was removed from the plate, and a Fluo-4 loaded solution (20 μL) was added to each well, followed by incubation at room temperature for 2 hours. The fluorescent reagent loaded solution was removed from each well, the cells were washed with a base buffer three times, and then a base buffer (20 μL) was added thereto, followed by analysis with FLIPR TETRA (Molecular Devices). The base buffer (10 μL) solution of the test drug was added thereto to a final concentration (1 nM to 30 μM) and the measurement of a change in the fluorescence was initiated. Thereafter, GABA (1 μM, 20 μL) was added thereto and the measurement was continued. The change in the fluorescence was measured every two or five seconds.
The maximum reaction rate of 100 μM GABA was taken as 100%. […]

[2] = tested on: spontaneous alternation behavior (short-term memory impairment); assay: Y-maze test: improvement effect on MK-801-induced cognitive impairment; assay type: in vivo, mouse; settings: oral, once, 30 minutes before test; ddY male mice; MK-801 0.15 mg/kg i.p.; spontaneous alternation rate
Procedure: The effect on the improvement of short-term memory impairment of the compound of the present invention was evaluated using a Y-maze test that is an experimental system of spontaneous alternation behavior.
As the Y maze, a maze, in which three runways having a length of one arm of 40 cm, a height of a wall of 13 cm, a width of a floor of 3 cm, and a width of a top of 10 cm are each joined at 120 degrees in a Y shape, was used. […]
The mouse was placed at one end of a certain place in the runway in the Y maze, and then freely explored for 8 minutes, and the runways into which the mice invaded and the order thereof were recorded. The number of the entries of the mice within a measurement time was counted and defined as a total number of entries. Among these, a combination when the mice invaded into different three runways (for example, in a case where the three arms are referred to as a, b, and c, respectively, and the order of the arms with entries is abccbacab, the number was counted as 4, including the repetition) was defined as the number of spontaneous alternation behaviors. For the spontaneous alternation rate, a spontaneous alternation rate calculated by the following equation was taken as an index of spontaneous alternation behavior: Spontaneous alternation rate=number of spontaneous alternation behaviors/(total number of entries−2)×100. […]

[3] = tested on: pressure pain threshold in the gastrocnemius muscle; assay: Pressure pain threshold in model with reserpine-induced muscle pain; assay type: in vivo; settings: oral, measured after 30 minutes; male SD rat; reserpine 1 mg/kg s.c. for 3 days
Procedure: This model is a model that mimics the pathological conditions of fibromyalgia. This test was carried out on the basis of the description in Pain, 2009, vol. 146, p. 26-33. Reserpine (1 mg/kg) was subcutaneously administered to the male SD rat (Japan SLC, Inc.)) once per day for 3 days. After 5 days, the solvent or the test drug was orally administered. After 30 minutes, the pressure pain threshold value was measured using a Randall-Selitto instrument (Muromachi Kikai Co., Ltd.) in the gastrocnemius muscle. The significant difference assay between the solvent group and the group administered with the test drug was carried out by comparison between the groups using a Student's t-test or a Dunnett's multiple comparison test. Here, the value obtained by administering a solvent to a normal rat not administered with reserpine was taken as 100%, and the value of the reserpine group administered with a solvent was taken as 0%. In each assay, if p<0.05 was satisfied, it was determined that there was a significant difference.

T1 sequence (Q9UBS5 1-844 isoform Q9UBS5-2): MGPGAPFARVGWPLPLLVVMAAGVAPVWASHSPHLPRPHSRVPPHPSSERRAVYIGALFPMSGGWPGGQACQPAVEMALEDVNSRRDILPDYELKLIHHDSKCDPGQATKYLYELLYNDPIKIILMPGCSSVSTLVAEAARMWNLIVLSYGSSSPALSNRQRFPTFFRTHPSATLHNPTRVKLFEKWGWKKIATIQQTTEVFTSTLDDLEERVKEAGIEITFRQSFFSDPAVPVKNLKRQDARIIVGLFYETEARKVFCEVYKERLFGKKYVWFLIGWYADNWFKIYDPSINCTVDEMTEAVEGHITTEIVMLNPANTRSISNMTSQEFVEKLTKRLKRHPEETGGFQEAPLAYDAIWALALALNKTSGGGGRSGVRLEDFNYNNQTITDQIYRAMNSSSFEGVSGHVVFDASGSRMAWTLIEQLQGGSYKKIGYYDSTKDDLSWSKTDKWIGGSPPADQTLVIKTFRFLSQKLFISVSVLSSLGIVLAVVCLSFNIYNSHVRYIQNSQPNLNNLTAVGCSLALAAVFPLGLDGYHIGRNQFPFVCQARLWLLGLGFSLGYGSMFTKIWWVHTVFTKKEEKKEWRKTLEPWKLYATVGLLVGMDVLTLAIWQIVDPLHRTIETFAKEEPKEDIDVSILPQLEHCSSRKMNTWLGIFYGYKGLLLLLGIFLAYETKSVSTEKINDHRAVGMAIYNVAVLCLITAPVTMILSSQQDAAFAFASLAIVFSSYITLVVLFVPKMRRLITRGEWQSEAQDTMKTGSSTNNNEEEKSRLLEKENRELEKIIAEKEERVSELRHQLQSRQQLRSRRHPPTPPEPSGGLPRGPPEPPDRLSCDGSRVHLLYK
T1 sequence (O75899 42-941): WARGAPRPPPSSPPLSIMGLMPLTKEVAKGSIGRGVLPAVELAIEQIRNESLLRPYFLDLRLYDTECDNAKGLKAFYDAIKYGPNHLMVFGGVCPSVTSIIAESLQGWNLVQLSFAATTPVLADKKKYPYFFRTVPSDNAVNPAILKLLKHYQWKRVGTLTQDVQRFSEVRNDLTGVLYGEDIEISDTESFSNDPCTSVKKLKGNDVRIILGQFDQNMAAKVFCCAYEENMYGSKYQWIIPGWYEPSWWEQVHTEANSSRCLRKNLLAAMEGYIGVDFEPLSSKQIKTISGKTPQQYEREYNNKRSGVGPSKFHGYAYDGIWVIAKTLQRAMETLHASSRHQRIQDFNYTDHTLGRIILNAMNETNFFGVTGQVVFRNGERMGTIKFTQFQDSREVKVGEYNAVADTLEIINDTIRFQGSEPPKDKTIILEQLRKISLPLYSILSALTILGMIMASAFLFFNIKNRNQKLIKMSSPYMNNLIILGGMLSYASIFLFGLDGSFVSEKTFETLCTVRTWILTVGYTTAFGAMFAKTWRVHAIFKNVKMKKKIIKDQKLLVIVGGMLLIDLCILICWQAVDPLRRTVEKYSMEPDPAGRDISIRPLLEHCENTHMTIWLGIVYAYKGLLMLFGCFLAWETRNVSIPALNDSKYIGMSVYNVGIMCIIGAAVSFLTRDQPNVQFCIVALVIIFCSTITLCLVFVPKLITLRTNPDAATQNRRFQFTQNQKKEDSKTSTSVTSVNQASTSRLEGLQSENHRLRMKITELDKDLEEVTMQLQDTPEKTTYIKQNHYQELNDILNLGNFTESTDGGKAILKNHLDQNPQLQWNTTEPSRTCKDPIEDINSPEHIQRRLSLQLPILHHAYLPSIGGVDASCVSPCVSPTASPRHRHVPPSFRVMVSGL

| Structure (SMILES) | EC50 [1] [nM] | Emax [1] [%] | MED [2] [mg/kg] | MED [3] [mg/kg] |
| --- | --- | --- | --- | --- |
| Cc1nc(CN2CCS(=O)(=O)CC2)c2cc(C3CCC(C)(C)CC3)sc2n1 [Ex2, 6-(4,4-dimethylcyclohexyl)-4-[(1,1-dioxidothiomorpholin-4-yl)methyl]-2-methylthieno[2,3-d]pyrimidine] | 59 | 470 | 0.1 | 0.03 |
| Cc1nc(CN2CC[C@@H](O)[C@H](O)C2)c2cc(C3CCC(C)(C)CC3)sc2n1 (single isomer, unassigned) [Ex31, trans-1-{[6-(4,4-dimethylcyclohexyl)-2-methylthieno[2,3-d]pyrimidin-4-yl]methyl}piperidine-3,4-diol] | 220 | 273 | 1.0 |  |
